According to patent publication US20240219403A1, “METHODS FOR INHIBITING KRAS ONCOPROTEIN THROUGH ENHANCED GTPASE ACTIVITY” (Memorial Sloan-Kettering Cancer Center, priority 2021, published 2024):

Assays:
KRAS^G12C [1] = target: T1, KRAS^G12C (Homo sapiens, UniProt P01116, G12C); test: RAS-binding domain (RBD) pulldown of active (GTP-bound) KRAS in KRAS^G12C-mutant cell lines treated with G12C inhibitors; format: cell-based
T1 construct: endogenous in cells; host or cells: H358, H2122, H2030, SW1573 (KRAS G12C-mutant lung cancer lines, ATCC)
Protocol: This was performed as described previously (42) by using the RAS activation kit (Thermo Scientific). Briefly, 50 μg whole cell lysates were incubated with 40 μg GST-RBD and 100 μL glutathione beads for 60 min followed by three washes in NP40 wash buffer and elution of pull-down fractions with 2×SDS PAGE loading dye. The samples were then subjected to western blotting with a KRAS specific (WH0003845M1) antibody (43).

KRAS^G12C [2] = target: T1, KRAS^G12C; test: GTPase assays of purified GTP-loaded KRAS^G12C incubated with GAP proteins (γ-phosphate, α-phosphate, continuous phosphate release); format: biochemical
Protocol: GTP[γ^32P] hydrolysis assay. KRAS proteins (0.5 μg) were reacted with 0.04 μM GTP[γ^32P] (6000 Ci/mmol; PerkinElmer Life Sciences) in 100 μL loading buffer (50 mM HEPES, pH 7.5, 50 mM NaCl, 1 mM DTT, 0.1 mM EGTA, 10 mM EDTA, and 1 mg/mL BSA) for 10 min at 30° C. (5, 40). Loading reactions were stopped by placing on ice and adding MgCl2 to a final concentration of 20 mM. The GTPase assays were performed at 30° C. in 100 μL mixtures containing 20 nM of loaded KRAS and either hydrolysis buffer (25 mM HEPES pH 7.5, 50 mM NaCl, 1 mM DTT, 1 mM MgCl2 and 1 mg/mL BSA) alone, or in combination with WCE or purified RGS3 (0.08-0.4 μg/μL). Equimolar comparisons of NF1, RASA1 and RGS3 were carried out using the continuous hydrolysis assay (see below). Reactions were stopped at the indicated time by filtering through 0.45-μm nitrocellulose membrane filters. The filters were washed 3 times with 0.2 mL of ice-cold hydrolysis buffer, air dried, and processed by autoradiography. Reaction rates were determined by fitting an exponential curve to the data, which was normalized to the baseline value. […]
Continuous hydrolysis assay (two-step detection of inorganic phosphate). […] The reaction was monitored by reading the absorbance at 360 nm every 10 to 20 s for ˜16-60 min at room temperature. […]

RGS3-assisted hydrolysis by KRAS^G12C slower than NF1-stimulated hydrolysis by KRAS^WT (KRAS^G12C [2])	effect on GTP-hydrolysis by KRAS^G12C (KRAS^G12C [2]; purified proteins)	Compound	time required for maximal inhibition of KRAS in cells (KRAS^G12C [1]; media with 10% serum) [min]	time required for maximal inhibition of KRAS in cells (KRAS^G12C [1]; serum-deprived media (suppresses nucleotide exchange)) [min]
–	–	C=CC(=O)N1CCN(c2nc(OC[C@@H]3CCCN3C)nc3c2CCN(c2cccc4cccc(C)c24)C3)C[C@@H]1CC#N [MRTX1257]	~60	~20
1-2 orders of magnitude	enhanced GTP-hydrolysis	RGS3: regulator of G protein signaling 3, recombinant p75/p25 variants; GAP for Gαi/q subunit	–	–
